Values joined by “and” are separate entries in the source; they are usually repeats but may differ in a detail not shown here. Equal values may be shown once.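 Values below derive from 48-hour exposures of cells grown in 96-well plates, with endpoints linearly interpolated between the two concentrations bracketing the appropriate inhibition level. Abbreviation: GI50, concentration required for 50% inhibition of growth. TGI: total growth inhibition.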
Columns and labels:
Assay in all cases: growth of human tumour cells (NCI), 48 h
SF-539 CNS = test system: SF-539 CNS
UO-31 renal = test system: UO-31 renal
OVCAR-4 ovarian = test system: OVCAR-4 ovarian
A498 renal = test system: A498 renal
NCI-H23 lung = test system: NCI-H23 lung
OVCAR-5 ovarian = test system: OVCAR-5 ovarian
RPMI-8226 leukemia = test system: RPMI-8226 leukemia
MALME-3M melanoma = test system: MALME-3M melanoma
HOP-92 NSCLC = test system: HOP-92 NSCLC
SNB-19 CNS = test system: SNB-19 CNS

Q: What does the source list for `C/C(=N\NC(=S)N1CCN(C2CCCCCC2)CC1)c1ccccn1`?
A: GI50 (SF-539 CNS): 29.4 nM; TGI (SF-539 CNS): 2500 nM and 2010 nM; GI50 (UO-31 renal): 1350 nM; TGI (UO-31 renal): 3750 nM and 1500 nM; TGI (OVCAR-4 ovarian): 3120 nM; TGI (A498 renal): 3760 nM; TGI (NCI-H23 lung): 5770 nM; TGI (OVCAR-5 ovarian): 3010 nM; GI50 (RPMI-8226 leukemia): < 1 nM; GI50 (MALME-3M melanoma): 38.2 nM; TGI (MALME-3M melanoma): 3090 nM; GI50 (HOP-92 NSCLC): 7.88 nM; TGI (HOP-92 NSCLC): 3050 nM; GI50 (SNB-19 CNS): 3170 nM; TGI (SNB-19 CNS): 8300 nM

Q: Which results are given for `N#Cc1ccsc1NC(=O)COC(=O)c1cccc(S(=O)(=O)N2CCc3ccccc32)c1`?
A: GI50 (SF-539 CNS): 15100 nM; TGI (SF-539 CNS): > 100000 nM; GI50 (UO-31 renal): 41200 nM; TGI (UO-31 renal): > 100000 nM; GI50 (OVCAR-4 ovarian): 64700 nM; TGI (OVCAR-4 ovarian): > 100000 nM; GI50 (A498 renal): > 100000 nM; TGI (A498 renal): > 100000 nM; GI50 (NCI-H23 lung): 38900 nM; TGI (NCI-H23 lung): > 100000 nM; GI50 (OVCAR-5 ovarian): 35200 nM; TGI (OVCAR-5 ovarian): > 100000 nM; GI50 (RPMI-8226 leukemia): 17400 nM; TGI (RPMI-8226 leukemia): > 100000 nM; GI50 (MALME-3M melanoma): 75800 nM; TGI (MALME-3M melanoma): > 100000 nM; GI50 (HOP-92 NSCLC): 40100 nM; TGI (HOP-92 NSCLC): > 100000 nM; GI50 (SNB-19 CNS): 55800 nM; TGI (SNB-19 CNS): > 100000 nM

Q: What does the source list for `O=S1(=O)NC2CCC3NS(=O)(=O)NC4CCC(N1)N4S(=O)(=O)N23` (stereo not given)?
A: TGI (SF-539 CNS): > 100000 nM; TGI (UO-31 renal): > 100000 nM; TGI (OVCAR-4 ovarian): > 100000 nM; TGI (A498 renal): > 100000 nM; TGI (NCI-H23 lung): > 100000 nM; TGI (OVCAR-5 ovarian): > 100000 nM; TGI (RPMI-8226 leukemia): > 100000 nM; TGI (MALME-3M melanoma): > 100000 nM; TGI (HOP-92 NSCLC): > 100000 nM; TGI (SNB-19 CNS): > 100000 nM

Q: Which GI50 (SF-539 CNS) does the source give for `C=C1COC(O)(C2OCOC(C3CC(=O)NC(=O)C3)C2O)C1C` (stereo not given) here?
A: 1.65 nM

Q: And the TGI (SF-539 CNS)?
A: 6.4 nM and 6.02 nM

Q: What about the GI50 (UO-31 renal) of the same molecule?
A: 2.04 nM

Q: And the TGI (UO-31 renal)?
A: 27.8 nM and 21.5 nM

Q: And the TGI (OVCAR-4 ovarian)?
A: 18.1 nM and 24.2 nM

Q: And the TGI (A498 renal)?
A: 5.2 nM and 5.54 nM

Q: What about the GI50 (NCI-H23 lung) of the same molecule?
A: 2.67 nM

Q: What about the TGI (NCI-H23 lung) of the same molecule?
A: 14.4 nM and 33.8 nM

Q: What about the GI50 (OVCAR-5 ovarian) of the same molecule?
A: 3.31 nM and 17 nM

Q: And the TGI (OVCAR-5 ovarian)?
A: 49.9 nM and 54.6 nM

Q: And the GI50 (RPMI-8226 leukemia)?
A: 2.36 nM

Q: What about the TGI (RPMI-8226 leukemia) of the same molecule?
A: 6.3 nM and 12.7 nM and 45.1 nM

Q: And the GI50 (MALME-3M melanoma)?
A: 2.85 nM

Q: What about the TGI (MALME-3M melanoma) of the same molecule?
A: 15.4 nM and 36.4 nM

Q: And the GI50 (HOP-92 NSCLC)?
A: 5.85 nM and 11.7 nM

Q: And the TGI (HOP-92 NSCLC)?
A: 35.4 nM and 45 nM

Q: And the GI50 (SNB-19 CNS)?
A: 3.6 nM

Q: Which results are given for `Cc1cc2nc3ccc(=[N+](C)C)cc-3sc2cc1N`?
A: GI50 (SF-539 CNS): 343 nM and 349 nM; TGI (SF-539 CNS): 1640 nM and 8970 nM and 1550 nM; GI50 (UO-31 renal): 1730 nM and 1610 nM; TGI (UO-31 renal): 9110 nM and 25100 nM and 10800 nM; GI50 (OVCAR-4 ovarian): 210 nM and 146 nM; GI50 (A498 renal): 1330 nM and 1930 nM; TGI (A498 renal): 14200 nM and 47200 nM and 12000 nM; GI50 (NCI-H23 lung): 388 nM and 381 nM; TGI (NCI-H23 lung): 2780 nM and 9300 nM and 2510 nM; GI50 (OVCAR-5 ovarian): 1370 nM and 833 nM; TGI (OVCAR-5 ovarian): 3950 nM and 22500 nM and 3420 nM; GI50 (RPMI-8226 leukemia): 218 nM and 86.7 nM; GI50 (MALME-3M melanoma): 384 nM and 223 nM; TGI (MALME-3M melanoma): 1800 nM and 6420 nM and 782 nM; GI50 (HOP-92 NSCLC): 1440 nM and 1760 nM; TGI (HOP-92 NSCLC): 10100 nM and 38300 nM and 11100 nM; GI50 (SNB-19 CNS): 782 nM; TGI (SNB-19 CNS): 10500 nM and 8990 nM and 9550 nM

Q: How did the TGI (SF-539 CNS) turn out when `CSc1nc2c(nc(N)n2C2OC(COC(C)=O)C(OC(C)=O)C(OC(C)=O)C2OC(C)=O)c(=O)n1C` (stereo not given) was run?
A: > 100000 nM

Q: What about the TGI (UO-31 renal) of the same molecule?
A: > 100000 nM

Q: And the TGI (OVCAR-4 ovarian)?
A: > 100000 nM

Q: What about the TGI (A498 renal) of the same molecule?
A: > 100000 nM

Q: What about the TGI (NCI-H23 lung) of the same molecule?
A: > 100000 nM

Q: And the TGI (OVCAR-5 ovarian)?
A: > 100000 nM

Q: And the TGI (RPMI-8226 leukemia)?
A: > 100000 nM

Q: What about the TGI (MALME-3M melanoma) of the same molecule?
A: > 100000 nM

Q: And the TGI (HOP-92 NSCLC)?
A: > 100000 nM

Q: What about the TGI (SNB-19 CNS) of the same molecule?
A: > 100000 nM

Reference: PubChem BioAssay (NCI)
